Where two headings read alike, the source gives them in different places.

For assay [1], the system named is CD70-dependent B cell help. Put plainly: TT48E T cell clone and autologous B cell costimulation without PWM, IgG ELISA. In kind it is cell-based, human. The following applies: P<0.05. The procedure: (§1) T cell and B cell costimulation assays. E-rosette-purified T cells were stimulated for 16 hours with PHA and then treated with the indicated chemicals for an additional 72 hours as described above. Where indicated, T cell subsets were isolated by negative selection using magnetic beads (Miltenyi). B cells (1-4×10^5) enriched by negative selection using magnetic beads (Miltenyi) and assessed to be 70-85% pure using PE-conjugated anti-human CD21 (PharMingen), were added to washed, drug-treated autologous T cells, at T cell to B cell ratios of 4:1, 2:1, 1:1, 1:2, and 1:4. Where indicated, 0.625 μg/ml of PWM (Aldrich) was added. The cells were cultured in RPMI 1640/10% FBS/penicillin/streptomycin for 8 days in 96-well roundbottomed plates (Costar) containing a 200 μl total volume (performed in duplicate). Cells were supplemented with 50 μl of medium on day 4. Where indicated, 1 μg/ml of anti-CD70 monoclonal antibody (HNE51) (Dako) was added to the cultures. TT48E cells were similarly stimulated with PHA (1 μg/ml) for 18 hours, treated with the indicated drugs for 3 days, then similarly cultured with autologous B cells for 8 days. […]
(§2) IgG enzyme-linked immunosorbent assays (ELISAs). […] Serial dilutions of purified human IgG (Sigma) were used for quantitation. […] The plates were read at 405 nm using a SpectraMax spectrophotometer (Molecular Devices). […]

Assay [2] has as its system CD70 mRNA. The experiment in a line: CD70 transcripts by real time RT-PCR in anti-CD3 + anti-CD28 stimulated CD4+ T cells. The following applies: 5 μm 5-azaC, 50 μm Pca, 20 μm Hyd, 40 μm U0126, 25 μm PD98059, 3 days. In kind it is cell-based, human. As to the method:
(§3) In other studies, T cells were isolated by negative selection using magnetic beads and instructions provided by the manufacturer (Pan T cell Isolation Kit, Miltenyi), and the CD4+ or CD8+ subset was similarly isolated by magnetic cell sorting. Jurkat cells (E6-1) were cultured as previously described (See, e.g., Cornacchia et al., J Immunol 140:2197 (1998)). Purified human CD4+ T cells were first stimulated with plate bound anti-CD3 and soluble anti-CD28. Briefly, 24 well plates were coated with 300 μl of anti-CD3 (10 μg/ml in PBS—SouthernBiotech) 18 hours 4° C., washed, then 2×10^6 purified T cells were added to the wells in 2 ml RPMI 1640/10% FCS containing 2 μg/ml anti-CD28 (SouthernBiotech). The plates were incubated 37° C. in a humidified atmosphere containing 5% CO2 for 18-24 hours, then treated with 5 μm 5-azaC (Aldrich), 50 μm Pca (Sigma), 20 μm Hyd (Aldrich), 40 μm UO126 (Promega) or 25 μm PD98059 (Promega), and cultured for 3 additional days as described (See, e.g., Oelke et al., Arthritis Rheum 50:1850 (2004)).

The subject of assay [3] is CD70-dependent B cell help. The experiment in a line: T cell and B cell costimulation assay with PWM, IgG ELISA. In kind it is cell-based, human. The following applies: 8 days, P<0.05. As to the method: as §1, with “4.” for “4. Where indicated, 1 μg/ml of anti-CD70 monoclonal antibody (HNE51) (Dako) was added to the cultures. TT48E cells were similarly stimulated with PHA (1 μg/ml) for 18 hours, treated with the indicated drugs for 3 days, then similarly cultured with autologous B cells for 8 days.”
as §2
Since CD70 participates in T cell-dependent B cell stimulation (See e.g., Kobata et al., Proc Natl Acad Sci USA 92, 11249 (1995)), the effects of DNA methylation inhibitors on CD70-dependent B cell help were examined. […] Eight days later, total IgG in the supernatants was measured by ELISA. […]

Assay [4] deals with CD70 promoter. Put plainly: Bisulfite sequencing of the CD70 promoter in CD4+ T cells. In kind it is cell-based, human. The following applies: anti-CD3 and anti-CD28 stimulated CD4+ T cells vs stimulated untreated controls. The procedure:
as §3
Bisulfite sequencing. The putative CD70 promoter was identified using the published CD70 cDNA sequence and Tfsitescan software. Deoxycytosine (dC) and deoxymethylcytosine (d^mC) bases in the gene promoter and 5′ flanking sequences were identified by bisulfite treatment of purified DNA followed by nested PCR amplification of 3 sequential fragments to span the entire region. The primers were designed to avoid CG pairs and to account for the conversion of dC to dU by the bisulfite. EcoRI sites were added to the forward primers, and XbaI to the reverse, to facilitate cloning. The amplified fragments were then cloned into PBS+, and 5 clones sequenced for each fragment. The primers used were: […]
The effect of lupus and DNA methylation inhibitors on a regulatory element in the CD70 promoter was examined. DNA was isolated from the CD4+ T cells of 7 healthy individuals or 6 lupus patients, bisulfite treated, the region from −466-−515, containing 6 CG pairs was amplified by PCR, and 5 fragments sequenced from each individual. The average methylation status of the 6 CG pairs for healthy versus lupus individuals is shown (FIG. 8, NI and Lupus, respectively). CD4+ T cells from 5 individuals were also stimulated with PHA, treated with the irreversible DNA methyltransferase inhibitor 5-azacytidine (5-azaC), and the methylation status of the 6 CG pairs similarly analyzed from the 25 fragments sequenced (FIG. 8, 5-azaC). […] Results are presented as the mean±SEM of the average methylation of the 6 CG pairs, measured from the 10-35 determinations/group.
The effects of the DNA methylation inhibitors on the methylation status of this region were then compared. […] Again, 5 cloned fragments were sequenced from each control, for a total of 35 determinations per CG pair. […] FIG. 14 compares the average methylation for the 10 CG pairs (−515 to −423) in the T cells treated with DNA methylation inhibitors relative to stimulated, untreated controls.

For assay [5], the system named is TT48E. The following applies: 6 experiments.

In the case of `Nc1ncn([C@@H]2O[C@H](CO)[C@@H](O)[C@H]2O)c(=O)n1` [5-azaC, 5-azacytidine], the “IgG produced by B cells cultured with drug-treated TT48E vs untreated T cells” value in assay [1] was “produce greater amounts of IgG”. Also, the “CD70 transcripts relative to β-actin, treated vs untreated” value in assay [2] is “increase CD70 transcripts”. Further, in assay [3], the “IgG secreted by B cells cultured with drug-treated T cells vs untreated T cells” value was “secreted greater amounts of IgG”. Further, the “methylation of the 10 CG pairs between −515 and −423 of the CD70 promoter” value in assay [4] is recorded as “hypomethylated compared to controls”. The “increase of CD70 expression on TT48E” value in assay [5] (1 μM 5-azaC, 3 days, P=0.048) came out at 1.69±0.33 fold.
For the compound `N#CC(=C(/N)Sc1ccccc1N)/C(C#N)=C(\N)Sc1ccccc1N` [U0126], the “IgG produced by B cells cultured with drug-treated TT48E vs untreated T cells” value in assay [1] is reported as “produce greater amounts of IgG”. Moreover, the “CD70 transcripts relative to β-actin, treated vs untreated” value in assay [2] was “increase CD70 transcripts”. The “IgG secreted by B cells cultured with drug-treated T cells vs untreated T cells” value in assay [3] is “secreted greater amounts of IgG”. In assay [4], the “methylation of the 10 CG pairs between −515 and −423 of the CD70 promoter” value is reported as “appears to demethylate”. Further, the “increase of CD70 expression on TT48E” value in assay [5] (40 μM U0126, 3 days, P=0.004) turned out to be 1.87±0.37 fold.

These data come from patent publication US20110256121A1, “METHODS AND KITS FOR DIAGNOSING OR MONITORING AUTOIMMUNE AND CHRONIC INFLAMMATORY DISEASES” (THE REGENTS OF THE UNIVERSITY OF MICHIGAN, priority 2008, published 2011).
